Entries after “also recorded” stand apart in the source; their conditions may differ.
Legend:
[1] = cited from earlier work; for typical maximum tolerated dose: body surface
[2] = tested on: RPMI2650 xenograft (Nasal Septum Carcinoma cells, ATCC# CCL-30); test: RPMI2650 head and neck carcinoma xenograft, tumor growth; format: in vivo, Mus musculus (Hsd: Athymic Nude-Foxn1nu); conditions: for TGI (tumor growth inhibition): day 30, after 3 weeks of dosing; for TGI (tumor growth inhibition) / GMDV (geo mean of final tumor volume/geo mean of initial tumor volume): ACE-041 10 mg/kg i.p. tiw, cisplatin 5 mg/kg i.v. qw; for GMDV (geo mean of final tumor volume/geo mean of initial tumor volume): day 30
Procedure: Tumor implantation. RPMI2650 (ATCC #CCL-30) were grown in Eagle's Minimum Essential Medium (ATCC Cat. No 30-2003), supplemented with fetal bovine serum (Gibco, Cat. No 26140) to a final concentration of 10%. Cell were harvested by mild trypsin digestion, washed in SFM and resuspended at a concentration of 50×10E6/ml in SFM. 0.1 ml (5×10E6 cells) of the cell suspension was injected subcutaneously in the right flank of a nude mouse.
Tumor measurement. Tumor size was measured manually using digital calipers. Tumor volume was calculated using the formula for a modified ellipse ((Length*Width2)/2).
Data Analysis. […] TGI was calculated according to the formula:
TGI=(GMDV(C)−GMDV(T))*100/(GMDV(C)−1), where GMDV=Geomean(final volumes)/Geomean(intitial volumes)

[3] = Animal body weight / tolerability in the RPMI2650 xenograft study; conditions: for Average changes in body weight: ACE-041 10 mg/kg i.p. tiw
Procedure: Nasal Septum Carcinoma cells (RPMI2650, ATCC# CCL-30) were injected subcutaneously in the right flank (5×10E6 in 0.1 ml of SFM) of 8-week old female mice. Nine days following implantation animals were randomized into 4 groups based on tumor volume. Animal dosing and tumor measurement was done three times a week.
Data Analysis. Graphing and statistical analysis of the tumor volume and body weight data was done using GraphPad Prism 5 software (GraphPad Software Inc., La Jolla, Calif.). Unpaired two-tailed t-test (with or w/o Welch correction) was used to determine statistical significance.

[4] = tested on: recurrent or metastatic squamous cell carcinoma of the head and neck (SCCHN); test: Phase 2 study of Dalantercept in recurrent or metastatic SCCHN; format: in vivo, human
Procedure: Methods: 46 patients were enrolled and received Dalantercept SC Q3W at 80 mg (n=2), 0.6 mg/kg (n=13), and 1.2 mg/kg (n=31) until disease progression or unacceptable toxicity. Archived and optional biopsies and serum were collected for PD (pharmacodynamic) studies . The primary endpoint was response rate (RR) per RECIST 1.1 and secondary endpoints included progression free survival and overall survival. Key eligibility: recurrent or metastatic SCCHN of mucosal origin, >1 one prior platinum regimen, ECOG performance status ≦1, and no prior anti-angiogenic therapy.

[5] = tested on: advanced, refractory solid tumors including SCCHN; test: Phase 1 study of dalantercept in patients with advanced, refractory solid tumors; format: in vivo, human; conditions: patients incl. SCCHN
[6] = Day 9 (randomization, start of dosing), s.c. RPMI2650 xenograft, nude mice
[7] = Day 30, ACE-041 10 mg/kg i.p. tiw x3, cisplatin 5 mg/kg i.v. qw x3
[8] = day 30, cisplatin 5 mg/kg i.v. qw

| Compound | typical maximum tolerated dose [1] | Tumor volume (geo mean) [2, 6] [mm3] | Tumor volume (geo mean) [2, 7] [mm3] | TGI (tumor growth inhibition) [2] [%] | GMDV (geo mean of final tumor volume/geo mean of initial tumor volume) [2] | maximum tolerated dose ([1]; typical, most patients) | Average changes in body weight [3, 8] [%] | cumulative body weight loss on average [3, 8] [%] | body weight loss of some animals (as much as) ([3]; individual animals, triggered termination of the study) [%] | proportion of patients with stable disease (SD) >3 cycles ([4]; 0.6 mg/kg SC Q3W (n=3)) [%] | proportion of patients with stable disease (SD) >3 cycles ([4]; 1.2 mg/kg SC Q3W (n=10)) [%] | patients achieving a partial response (PR), RECIST 1.1 ([4]; 1 patient at 1.2 mg/kg SC Q3W, 41 evaluable patients) [%] | frequency of grade >3 related AEs ([4]; 46 patients enrolled, SC Q3W) [%] | most common drug-related adverse events (in words) ([4]; grade 1-2) | clinical activity (in words) ([5]; listed as Dalantercept) | clinical activity (in words) ([5]; listed as dalantercept) | toxicity as monitored by changes in animal body weight (in words) ([3]; dosing period to day 30) |
| --- | --- | --- | --- | --- | --- | --- | --- | --- | --- | --- | --- | --- | --- | --- | --- | --- | --- |
| N.N.N.N.N.N.NCCCCCCN.NCCCCCCN.[Cl-].[Cl-].[Pt+2].[Pt+2].[Pt+2] [Triplatin] | 0.9-1.1 mg/m^2 |  |  |  |  |  |  |  |  |  |  |  |  |  |  |  |  |
| N.N.O=C([O-])C1(C(=O)[O-])CCC1.[Pt+2] [Carboplatin] | 600-800 mg/m^2 |  |  |  |  |  |  |  |  |  |  |  |  |  |  |  |  |
| N.N.[Cl][Pt][Cl] [Cisplatin, cisplatin] | 60-100 mg/m^2 | 185.8 | 1001 | 35 | 5.4 | about 5 mg/kg/day | −12.9 | ~13 | ≤ 20 |  |  |  |  |  |  |  |  |
| ACE-041: Soluble ALK1-IgG1 fusion protein (ALK1 extracellular domain-Fc), see SEQ ID NO: 3; ligand trap to BMP 9 and 10 |  | 181.4 | 1024 | 32 | 5.6 |  | 9.1 |  |  | 23 | 37 | 2.4 | 13 | anemia, fatigue, peripheral edema, headache, hyponatremia, and pleural effusion | demonstrated activity in a subset of patients with SCCHN | signs of clinical activity; also recorded: stable disease | did not show any sign of acute toxicity |
